Results reported in ChEMBL document CHEMBL1145620, “Synthesis and evaluation of sulfamide-type indolizidines as glycosidase inhibitors” (Bioorg Med Chem Lett, 2008).
pKi: −log10 of the molar value. The source made the active and inactive calls. The calls are words filed in the database; no cut-off is given here.

Key:
Canavalia ensiformis = experiment: (§1) Inhibition of jack beans alpha-mannosidase
[1] = (§2) Inhibition of yeast alpha-glucosidase; design: species or system Saccharomyces cerevisiae
Cornu aspersum = experiment: Inhibition of snail beta-mannosidase
[2] = as §1; design: species or system Canavalia ensiformis
Aspergillus niger = experiment: Inhibition of Aspergillus niger amyloglucosidase
[3] = target: T1, Beta-galactosidase (Bos taurus) (UniProt Q58D55); experiment: Inhibition of bovine liver beta-galactosidase
T1 sequence (whole entry): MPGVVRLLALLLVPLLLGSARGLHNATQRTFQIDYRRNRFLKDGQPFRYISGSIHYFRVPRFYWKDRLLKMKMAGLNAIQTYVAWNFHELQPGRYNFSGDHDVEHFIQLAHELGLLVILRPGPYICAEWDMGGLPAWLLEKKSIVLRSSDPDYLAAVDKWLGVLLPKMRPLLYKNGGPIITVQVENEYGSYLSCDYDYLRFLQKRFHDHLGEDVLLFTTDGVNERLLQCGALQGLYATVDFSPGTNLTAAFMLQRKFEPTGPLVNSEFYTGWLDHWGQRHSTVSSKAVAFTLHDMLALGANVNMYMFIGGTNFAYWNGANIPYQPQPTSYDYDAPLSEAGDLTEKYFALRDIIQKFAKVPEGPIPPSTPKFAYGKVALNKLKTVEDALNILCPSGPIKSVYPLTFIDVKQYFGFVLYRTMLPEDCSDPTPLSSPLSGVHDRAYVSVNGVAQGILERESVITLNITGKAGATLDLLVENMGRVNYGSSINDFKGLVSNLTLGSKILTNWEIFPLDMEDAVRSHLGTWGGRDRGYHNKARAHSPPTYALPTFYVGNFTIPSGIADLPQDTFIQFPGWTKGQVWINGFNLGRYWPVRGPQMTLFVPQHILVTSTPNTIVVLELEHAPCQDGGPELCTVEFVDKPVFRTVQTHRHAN

Saccharomyces cerevisiae [4] = experiment: as §2
Penicillium decumbens = experiment: Inhibition of Penicillium decumbens naringinase
[5] = target: T2, Uncharacterized protein (Sus scrofa) (UniProt I3LIR5); experiment: Inhibition of pig kidney trehalase
T2 sequence (whole entry): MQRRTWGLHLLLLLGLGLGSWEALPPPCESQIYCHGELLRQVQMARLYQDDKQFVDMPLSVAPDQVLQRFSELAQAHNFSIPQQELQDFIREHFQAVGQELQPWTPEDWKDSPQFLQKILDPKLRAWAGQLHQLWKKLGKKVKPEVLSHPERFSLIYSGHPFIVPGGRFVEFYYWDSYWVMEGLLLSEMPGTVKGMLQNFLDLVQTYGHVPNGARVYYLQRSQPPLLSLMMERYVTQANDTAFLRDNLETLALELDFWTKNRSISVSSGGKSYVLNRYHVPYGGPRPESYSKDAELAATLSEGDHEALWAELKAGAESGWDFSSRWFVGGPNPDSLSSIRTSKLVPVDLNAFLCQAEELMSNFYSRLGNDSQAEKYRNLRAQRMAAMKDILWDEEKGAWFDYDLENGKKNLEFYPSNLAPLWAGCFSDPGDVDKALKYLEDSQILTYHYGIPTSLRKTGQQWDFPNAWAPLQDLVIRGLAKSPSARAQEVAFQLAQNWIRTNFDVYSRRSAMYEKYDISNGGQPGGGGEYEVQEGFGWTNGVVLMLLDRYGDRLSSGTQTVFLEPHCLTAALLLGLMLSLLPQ

[6] = target: Alpha-galactosidase (Coffea arabica) (UniProt Q5DUH8); experiment: Inhibition of green coffee beans alpha-galactosidase
Alpha-galactosidase (Coffea arabica), sequence (Q5DUH8 as listed by the source): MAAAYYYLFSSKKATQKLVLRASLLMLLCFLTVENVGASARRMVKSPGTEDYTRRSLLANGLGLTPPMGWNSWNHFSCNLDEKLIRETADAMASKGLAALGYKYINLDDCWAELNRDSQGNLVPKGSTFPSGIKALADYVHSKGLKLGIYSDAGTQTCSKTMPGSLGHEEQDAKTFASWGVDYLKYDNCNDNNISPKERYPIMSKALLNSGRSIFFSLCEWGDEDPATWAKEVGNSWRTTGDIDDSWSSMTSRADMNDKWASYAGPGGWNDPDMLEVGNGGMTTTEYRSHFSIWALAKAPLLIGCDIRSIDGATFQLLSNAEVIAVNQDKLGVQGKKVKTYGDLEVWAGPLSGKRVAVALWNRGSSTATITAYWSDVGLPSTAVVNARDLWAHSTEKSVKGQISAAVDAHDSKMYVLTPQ

Saccharomyces cerevisiae [7] = experiment: Inhibition of yeast isomaltase
Prunus dulcis = experiment: Inhibition of almonds beta-glucosidase
[8] = Inhibition of bovine liver beta-glucosidase; design: species or system Bos taurus

| SMILES | Activity (Canavalia ensiformis) | pKi [1] | Activity (Cornu aspersum) | other results |
| --- | --- | --- | --- | --- |
| O=S1(=O)NC[C@@H]2[C@@H](O)[C@H](O)[C@H](O)C(O)N21 (stereo partly specified) |  |  |  | pKi [2]: 3.82 |
| O[C@@H]1[C@@H](O)[C@@H](O)N2C(=S)OC[C@@H]2[C@H]1O | Active | 5.66 | Active |  |
| O[C@@H]1[C@@H](O)[C@@H](O)N2C(=S)NC[C@@H]2[C@H]1O | Active | 2.38 | Active |  |
| CCCC/N=C1/OC[C@@H]2[C@@H](O)[C@H](O)[C@@H](O)[C@@H](O)N12 | Active |  | Active | pKi [8]: 5.66 |
| O=C1OC[C@@H]2[C@@H](O)[C@H](O)[C@@H](O)[C@@H](O)N12 | Active | 4.40 | Active |  |

Now from value to compound, other results behind:

| Activity (Canavalia ensiformis) | pKi [1] | Activity (Cornu aspersum) | SMILES | other results |
| --- | --- | --- | --- | --- |
| Active | 2.24 | Active | O=C1NC[C@@H]2[C@@H](O)[C@H](O)[C@@H](O)[C@@H](O)N12 |  |
|  |  | inactive | O=S1(=O)NC[C@@H]2[C@@H](O)[C@H](O)[C@@H](O)C(O)N21 (stereo partly specified) | pKi [2]: 3.49; Activity (Aspergillus niger): inactive; Activity [3]: inactive; Activity (Saccharomyces cerevisiae [4]): inactive; Activity (Penicillium decumbens): inactive; Activity [5]: inactive; Activity [6]: inactive; Activity (Saccharomyces cerevisiae [7]): inactive; Activity (Prunus dulcis): inactive |
